According to patent US20170159101A1, “DRUG-RESISTANT P97 ATPASE MUTATIONS” (Cleave Biosciences, Inc., priority 2014, published 2017):

Legend:
[1] = test system: Hct116 resistant cell line clone #30 (p97 F516L); experiment: GI50 fold-change, resistant clone #30 vs parental; type: cell-based, human; details: Clone #30, Hct116, resistance generated with compound 4, T1546C / F516L; 72 hrs
Description: (§1) Dose titration of test compounds were conducted in Hct116, DLD-1, or LoVo cell lines. In brief, cells were plated in 384-well plates and a selected candidate drug compound was added in a 10-point 2-fold serial dilution.

[2] = test system: Hct116 resistant cell line clone #137 (p97 T475I); experiment: GI50 fold-change, resistant clone #137 vs parental; type: cell-based, human; details: Clone #137, Hct116, resistance generated with compound 4, C1424T / T475I; 72 hrs
Description: as §1

[3] = test system: DLD-1 resistant cell line clone #82 (p97 A569A/T); experiment: GI50 fold-change, resistant clone #82 vs parental; type: cell-based, human; details: Clone #82, DLD-1, resistance generated with compound 4, G1705G/A / A569A/T; 72 hrs
Description: as §1

[4] = test system: Hct116 resistant cell line clone #25 (p97 P500T); experiment: GI50 fold-change, resistant clone #25 vs parental; type: cell-based, human; details: Clone #25, Hct116, resistance generated with compound 4, C1498A / P500T; 72 hrs
Description: as §1

[5] = test system: p97 inhibitor resistant cell lines; experiment: GI50 fold-change in p97 inhibitor resistant cell lines (overall); type: cell-based, human; details: all resistant cell lines of Table 1, in words
Description: as §1

[6] = test system: Hct116 resistant cell line clone #3 (p97 G481A); details: Clone #3, Hct116, resistance generated with compound 2, G1442C / G481A; 72 hrs
[7] = test system: Hct116 resistant cell line clone #207 (p97 V485D); experiment: GI50 fold-change, resistant clone #207 vs parental; type: cell-based, human; details: Clone #207, Hct116, resistance generated with compound 4, T1454A / V485D; 72 hrs
Description: as §1

[8] = test system: Hct116 resistant cell line clone #42 (p97 P472A); experiment: GI50 fold-change, resistant clone #42 vs parental; type: cell-based, human; details: Clone #42, Hct116, resistance generated with compound 4, C1414G / P472A; 72 hrs
Description: as §1

[9] = test system: DLD-1 resistant cell line clone #64 (p97 N660N/S); experiment: GI50 fold-change, resistant clone #64 vs parental; type: cell-based, human; details: Clone #64, DLD-1, resistance generated with compound 4, A1979G/A / N660N/S; 72 hrs
Description: as §1

[10] = test system: Hct116 resistant cell line clone #11 (p97 E470D); details: Clone #11, Hct116, resistance generated with compound 3, G1410T / E470D; 72 hrs
[11] = test system: Hct116 resistant cell line clone #31 (p97 C535Y); experiment: GI50 fold-change, resistant clone #31 vs parental; type: cell-based, human; details: Clone #31, Hct116, resistance generated with compound 4, G1604A / C535Y; 72 hrs
Description: as §1

[12] = test system: Hct116 resistant cell line clone #33 (p97 P472L); experiment: GI50 fold-change, resistant clone #33 vs parental; type: cell-based, human; details: Clone #33, Hct116, resistance generated with compound 4, C1415T / P472L; 72 hrs
Description: as §1

Compound	Fold Change in GI50 Compared to Parental Cell Line [1] [fold]	Fold Change in GI50 Compared to Parental Cell Line [2] [fold]	Fold Change in GI50 Compared to Parental Cell Line [3] [fold]	Fold Change in GI50 Compared to Parental Cell Line [4] [fold]	fold-change in GI50 for the p97 inhibitor resistant cell lines [5]	Fold Change in GI50 Compared to Parental Cell Line [6] [fold]	Fold Change in GI50 Compared to Parental Cell Line [7] [fold]	Fold Change in GI50 Compared to Parental Cell Line [8] [fold]	Fold Change in GI50 Compared to Parental Cell Line [9] [fold]	Fold Change in GI50 Compared to Parental Cell Line [10] [fold]	Fold Change in GI50 Compared to Parental Cell Line [11] [fold]	Fold Change in GI50 Compared to Parental Cell Line [12] [fold]
CC(C)C[C@H](NC(=O)[C@H](Cc1ccccc1)NC(=O)c1cnccn1)B(O)O [Compound 1, [(1R)-3-methyl-1-[(2S)-3-phenyl-2-(pyrazin-2-ylformamido)propanamido]butyl]boronic acid, reference compound]	0.9	0.8	1.5	1.3	little fold-change in GI50	0.9	1.0	1.0	0.7	1.0	0.9	0.9
Cc1cc2c(C(N)=O)cccc2n1-c1nc2c(c(NCc3ccccc3)n1)COCC2 [Compound 4, 1-[4-(benzylamino)-5H,7H,8H-pyrano[4,3-d]pyrimidin-2-yl]-2-methyl-1H-indole-4-carboxamide]	7.1	4.4	6.6	1.6		19.4	17.0	6.1	1.2	5.4	4.6	11.6
